Active and inactive are the calls of the source. Where only a bound is given, the exact number is not on record here.

The results in this text go back to ChEMBL document CHEMBL1201862, “PubChem BioAssay data set” (2004).

For assay [1], the target named is ADP-ribosylation factor GTPase-activating protein 1 (Rattus norvegicus, UniProt Q62848). Briefly: Fluorescence polarization-based biochemical high throughput dose response screening assay to identify inhibitors of ADP-ribosylation factor GTPase activating protein 1 (ARFGAP1). The assay is classed as functional.
Assay [2] has as its target DNA repair and recombination protein RAD54-like (Homo sapiens, UniProt Q92698). The assay can be described thus: inhibitors of human RAD54 branch migration, confirmation, biochemical, fluorescence, cherry-picked samples, dose series (AID 651657). The assay is classed as functional.
Assay [3] can be described thus: growth suppression of beta-catenin-knockout colon cells, dose response, cell-based, HCT116, human colon tumor (AID 1045).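 Note: HCT116 colon tumor cells with beta catenin knocked out; cells exposed to compound for 60 hours.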 Type of assay: functional.
Assay [4] deals with Cytochrome P450 3A4 (Homo sapiens, UniProt P08684).
Assay [5] in a line: growth suppression of PTEN-null colon cells, dose response, cell-based, HCT116 PTEN knockout (AID 1047).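 Note: HCT116 colon tumor cells with PTEN knocked out; cells exposed to compound for 60 hours before readout; potency for loss of cell viability measured by luminescence.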 Type of assay: functional.
Assay [6] addresses T1, Tyrosine-protein phosphatase non-receptor type 22 (Homo sapiens, UniProt Q9Y2R2).
T1 sequence (Q9Y2R2 whole entry): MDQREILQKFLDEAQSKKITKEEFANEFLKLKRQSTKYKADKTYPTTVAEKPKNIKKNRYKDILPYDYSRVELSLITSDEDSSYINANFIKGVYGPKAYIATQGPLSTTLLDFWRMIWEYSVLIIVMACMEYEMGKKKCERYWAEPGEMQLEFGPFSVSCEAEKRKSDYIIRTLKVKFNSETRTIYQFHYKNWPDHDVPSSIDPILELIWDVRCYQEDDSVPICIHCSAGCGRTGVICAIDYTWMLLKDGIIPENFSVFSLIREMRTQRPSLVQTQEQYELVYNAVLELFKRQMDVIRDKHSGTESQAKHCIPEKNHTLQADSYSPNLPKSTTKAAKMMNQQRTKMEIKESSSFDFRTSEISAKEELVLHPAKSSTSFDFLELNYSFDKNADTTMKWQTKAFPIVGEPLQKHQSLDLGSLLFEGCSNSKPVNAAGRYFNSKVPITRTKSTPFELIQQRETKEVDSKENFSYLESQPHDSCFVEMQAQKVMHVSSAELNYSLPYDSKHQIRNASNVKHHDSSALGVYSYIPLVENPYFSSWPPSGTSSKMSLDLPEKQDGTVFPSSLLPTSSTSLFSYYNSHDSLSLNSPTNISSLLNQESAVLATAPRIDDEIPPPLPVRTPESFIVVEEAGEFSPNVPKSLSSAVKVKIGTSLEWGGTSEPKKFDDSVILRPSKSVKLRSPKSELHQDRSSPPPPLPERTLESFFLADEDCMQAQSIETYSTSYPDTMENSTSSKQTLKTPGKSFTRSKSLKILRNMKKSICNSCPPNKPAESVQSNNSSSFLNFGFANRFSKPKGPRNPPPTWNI
The assay can be described thus: LYP phosphatase inhibition for selectivity, dose response, selectivity assay for LMPTP inhibitor project, biochemical, fluorescence, LYP catalytic domain (AID 652006). The following applies: read-out: IC50_Mean. The assay is classed as functional.

In assay [7] the target is T2, Low molecular weight phosphotyrosine protein phosphatase (Homo sapiens, UniProt P24666).
T2 sequence (P24666 whole entry): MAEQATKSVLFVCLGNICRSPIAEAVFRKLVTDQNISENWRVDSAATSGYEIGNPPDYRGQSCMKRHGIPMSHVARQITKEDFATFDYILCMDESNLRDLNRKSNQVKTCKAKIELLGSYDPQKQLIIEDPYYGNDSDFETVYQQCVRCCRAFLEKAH
The assay is classed as functional. To be noted: read-out: IC50_Mean.

For assay [8], the target named is T2, Low molecular weight phosphotyrosine protein phosphatase. Type of assay: functional. The following applies: read-out: IC50_Mean. The source holds these as a separate data set.
Assay [9] addresses T3, Carboxy-terminal domain RNA polymerase II polypeptide A small phosphatase 1 (Homo sapiens, UniProt Q9GZU7).
T3 sequence (Q9GZU7 whole entry): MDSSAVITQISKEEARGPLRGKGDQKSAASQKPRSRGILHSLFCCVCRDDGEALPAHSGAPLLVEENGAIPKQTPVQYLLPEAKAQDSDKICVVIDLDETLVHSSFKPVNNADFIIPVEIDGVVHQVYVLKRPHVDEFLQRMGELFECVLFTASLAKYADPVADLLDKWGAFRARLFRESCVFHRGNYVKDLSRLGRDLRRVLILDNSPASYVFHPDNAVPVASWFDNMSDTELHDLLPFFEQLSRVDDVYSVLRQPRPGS
The assay can be described thus: inhibitors of CTDSP1, concentration-response testing, biochemical assay, absorbance-based, actives from ultra-high-throughput screening (AID 540297). Type of assay: functional.

Assay [10] addresses Botulinum neurotoxin type F (Clostridium botulinum, UniProt P30996). Briefly: High-throughput multiplex microsphere dose response for inhibitors of toxin protease, specifically Botulinum neurotoxin light chain F protease, compounds from Cherry Pick 02. The assay is classed as functional. To be noted: read-out: EC50_MICROM.
In assay [11] the target is Arf-GAP with SH3 domain, ANK repeat and PH domain-containing protein 1 (Homo sapiens, UniProt Q9ULH1). The assay is classed as functional.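 Note: biochemical fluorescence polarization dose–response screen measuring inhibition of ASAP1; ASAP1 GAP domain stimulating GTP hydrolysis by truncated human ARF1.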
Arf-GAP with SH3 domain, ANK repeat and PH domain-containing protein 1, sequence (Q9ULH1 whole entry, the tested form may be a part): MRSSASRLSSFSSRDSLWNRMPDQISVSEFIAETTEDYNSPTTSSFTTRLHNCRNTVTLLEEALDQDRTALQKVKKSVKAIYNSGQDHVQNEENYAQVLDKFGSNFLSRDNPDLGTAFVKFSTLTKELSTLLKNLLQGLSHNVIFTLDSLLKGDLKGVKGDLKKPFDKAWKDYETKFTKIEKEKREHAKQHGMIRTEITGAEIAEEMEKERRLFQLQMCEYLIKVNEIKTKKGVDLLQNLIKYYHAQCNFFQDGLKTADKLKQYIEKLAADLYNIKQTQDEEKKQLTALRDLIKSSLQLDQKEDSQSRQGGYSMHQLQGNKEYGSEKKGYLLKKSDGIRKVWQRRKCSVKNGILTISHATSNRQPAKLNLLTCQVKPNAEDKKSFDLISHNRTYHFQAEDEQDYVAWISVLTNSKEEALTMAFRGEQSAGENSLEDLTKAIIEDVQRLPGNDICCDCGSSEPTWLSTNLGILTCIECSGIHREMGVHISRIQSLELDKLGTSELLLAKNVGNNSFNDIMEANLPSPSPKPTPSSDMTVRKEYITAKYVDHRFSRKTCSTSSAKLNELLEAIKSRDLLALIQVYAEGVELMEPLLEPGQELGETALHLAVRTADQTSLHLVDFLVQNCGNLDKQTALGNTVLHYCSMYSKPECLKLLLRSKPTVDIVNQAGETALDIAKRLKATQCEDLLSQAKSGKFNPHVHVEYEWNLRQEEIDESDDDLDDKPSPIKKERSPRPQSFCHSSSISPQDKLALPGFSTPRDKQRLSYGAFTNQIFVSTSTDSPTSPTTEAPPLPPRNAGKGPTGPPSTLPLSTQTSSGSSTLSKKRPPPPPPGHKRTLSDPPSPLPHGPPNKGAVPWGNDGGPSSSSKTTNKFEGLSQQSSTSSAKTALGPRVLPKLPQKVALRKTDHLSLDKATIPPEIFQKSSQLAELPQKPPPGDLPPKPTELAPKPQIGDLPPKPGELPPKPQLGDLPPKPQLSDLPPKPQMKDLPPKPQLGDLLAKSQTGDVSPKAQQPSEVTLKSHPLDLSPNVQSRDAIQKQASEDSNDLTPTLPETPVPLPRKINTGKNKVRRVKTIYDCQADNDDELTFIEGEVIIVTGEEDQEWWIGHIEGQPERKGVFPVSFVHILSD

ADP-ribosylation factor GTPase-activating protein 1, sequence (Q62848 whole entry): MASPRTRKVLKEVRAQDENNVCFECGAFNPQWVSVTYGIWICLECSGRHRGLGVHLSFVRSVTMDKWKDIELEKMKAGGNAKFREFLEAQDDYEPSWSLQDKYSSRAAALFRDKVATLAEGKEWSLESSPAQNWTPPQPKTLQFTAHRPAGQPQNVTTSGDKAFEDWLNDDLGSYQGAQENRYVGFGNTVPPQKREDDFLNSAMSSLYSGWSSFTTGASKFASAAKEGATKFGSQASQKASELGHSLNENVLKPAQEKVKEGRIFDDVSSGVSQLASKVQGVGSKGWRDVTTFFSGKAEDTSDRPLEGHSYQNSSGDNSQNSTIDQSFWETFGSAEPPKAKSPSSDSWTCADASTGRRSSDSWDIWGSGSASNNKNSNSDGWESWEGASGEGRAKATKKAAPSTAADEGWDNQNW
DNA repair and recombination protein RAD54-like, sequence (Q92698 whole entry): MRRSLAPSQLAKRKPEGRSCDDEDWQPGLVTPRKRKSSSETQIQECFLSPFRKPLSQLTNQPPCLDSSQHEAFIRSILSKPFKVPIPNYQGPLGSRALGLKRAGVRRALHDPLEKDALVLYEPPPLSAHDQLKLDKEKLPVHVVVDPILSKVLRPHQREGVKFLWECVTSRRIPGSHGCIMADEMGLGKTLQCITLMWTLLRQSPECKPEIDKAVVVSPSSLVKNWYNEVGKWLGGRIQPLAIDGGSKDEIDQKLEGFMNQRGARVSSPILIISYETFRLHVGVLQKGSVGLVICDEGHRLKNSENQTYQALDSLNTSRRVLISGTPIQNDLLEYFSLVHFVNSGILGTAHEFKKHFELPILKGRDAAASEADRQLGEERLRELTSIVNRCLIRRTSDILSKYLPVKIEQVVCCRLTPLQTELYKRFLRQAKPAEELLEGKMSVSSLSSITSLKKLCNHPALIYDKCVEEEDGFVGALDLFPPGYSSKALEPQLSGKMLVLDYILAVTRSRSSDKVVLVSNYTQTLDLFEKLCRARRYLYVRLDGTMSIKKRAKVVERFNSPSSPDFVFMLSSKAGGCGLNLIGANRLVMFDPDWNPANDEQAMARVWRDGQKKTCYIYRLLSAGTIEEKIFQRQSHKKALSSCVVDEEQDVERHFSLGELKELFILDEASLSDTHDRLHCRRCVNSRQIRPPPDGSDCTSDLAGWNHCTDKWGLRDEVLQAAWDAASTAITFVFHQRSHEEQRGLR
Botulinum neurotoxin type F, sequence (P30996 1-436 limits assumed): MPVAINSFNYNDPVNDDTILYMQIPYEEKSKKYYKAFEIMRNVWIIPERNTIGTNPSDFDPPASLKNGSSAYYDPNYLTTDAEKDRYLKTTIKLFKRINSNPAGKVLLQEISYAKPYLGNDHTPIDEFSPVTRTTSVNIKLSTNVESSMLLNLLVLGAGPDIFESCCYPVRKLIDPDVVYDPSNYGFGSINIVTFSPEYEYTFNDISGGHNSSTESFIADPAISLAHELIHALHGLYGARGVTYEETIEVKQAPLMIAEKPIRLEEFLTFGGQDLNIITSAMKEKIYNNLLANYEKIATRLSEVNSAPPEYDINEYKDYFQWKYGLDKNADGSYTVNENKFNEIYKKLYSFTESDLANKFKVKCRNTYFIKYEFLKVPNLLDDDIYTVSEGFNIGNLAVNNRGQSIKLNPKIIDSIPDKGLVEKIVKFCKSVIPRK
Cytochrome P450 3A4, sequence (P08684 whole entry): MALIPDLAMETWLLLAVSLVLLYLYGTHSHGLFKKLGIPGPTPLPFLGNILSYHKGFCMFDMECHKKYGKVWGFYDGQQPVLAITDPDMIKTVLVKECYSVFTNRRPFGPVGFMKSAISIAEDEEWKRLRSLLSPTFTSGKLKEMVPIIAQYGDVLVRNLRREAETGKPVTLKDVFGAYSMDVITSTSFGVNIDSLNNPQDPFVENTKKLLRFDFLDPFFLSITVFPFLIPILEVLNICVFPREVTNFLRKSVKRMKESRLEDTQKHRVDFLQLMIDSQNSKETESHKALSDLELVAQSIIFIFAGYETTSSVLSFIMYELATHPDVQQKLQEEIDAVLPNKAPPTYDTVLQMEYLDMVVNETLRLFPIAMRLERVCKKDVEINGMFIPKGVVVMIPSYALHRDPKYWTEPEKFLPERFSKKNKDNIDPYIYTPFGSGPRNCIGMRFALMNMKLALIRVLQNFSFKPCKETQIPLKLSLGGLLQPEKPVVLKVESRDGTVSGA

Turning to `COc1ccc(-n2c(=O)c3c4c(sc3n3cnnc23)CC(C)CC4)cc1` (stereo unspecified), the IC50 in [1] was 23.1 µM (inactive).

Usually AC50 stands for the concentration at which the activity in the assay is half-maximal. `CCOc1ccc2nc(C)cc(Nc3ccc4c(c3)OCCO4)c2c1`: the AC50 in assay [2] is 25 µM (active); in assay [4], 25.1 µM (inconclusive). Besides, the EC50 in [3] is 11.3 µM (active); in assay [5], 14.7 µM (active).

For `Cc1cc2oc(=O)cc(-c3cc4ccccc4o3)c2cc1O`, the IC50 in assay [6] was 29.1 µM (inactive); in [7], 21.5 µM (inactive); in [8], 20.7 µM (inactive); in [9], 3.8 µM (active).

Regarding `COc1ccc(C(CNC(=O)c2ccc(OC)c(S(=O)(=O)N3CCCC3)c2)N2CCCC2)cc1` (stereo unspecified), in assay [10], the EC50 is > 20 µM (inactive).

For the compound `CC(=O)c1cccc(NC(=O)CSc2ccc(-c3ccc4c(c3)OCO4)nn2)c1`, in assay [11], the IC50 is 33.9 µM (inactive).
